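Method: 48-hour compound exposure of cells in 96-well plates, five concentrations, linear interpolation of endpoints. Here, GI50 denotes the concentration required for 50% inhibition of growth.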 The source made the active and inactive calls. Rule as the data show it: active = GI50 up to about 1.1 µM and inactive = higher.
Tests used:
Assay in all cases: DTP human tumour cell line panel, 48 h
HCC 2998 = system: HCC 2998
CCRF-CEM = system: CCRF-CEM
A549 = system: A549
OVCAR-3 = system: OVCAR-3
HT-29 = system: HT-29
SW-620 = system: SW-620
MOLT-4 = system: MOLT-4
RXF 393 = system: RXF 393
SK-OV-3 = system: SK-OV-3
NCI-H23 = system: NCI-H23
UO-31 = system: UO-31
T47D = system: T47D
U-251 = system: U-251
OVCAR-4 = system: OVCAR-4
Hs-578T = system: Hs-578T
MDA-N = system: MDA-N
SF-268 = system: SF-268
MCF7 = system: MCF7
PC-3 = system: PC-3
SR = system: SR
SNB-19 = system: SNB-19
HCT-116 = system: HCT-116
TK-10 = system: TK-10
NCI-H460 = system: NCI-H460
HOP-92 = system: HOP-92
A498 = system: A498
NCI-H522 = system: NCI-H522
ACHN = system: ACHN
SNB-75 = system: SNB-75
MDA-MB-231 = system: MDA-MB-231
KM12 = system: KM12
SK-MEL-28 = system: SK-MEL-28
LOX IMVI = system: LOX IMVI
DU-145 = system: DU-145
COLO 205 = system: COLO 205
SN12C = system: SN12C
UACC-257 = system: UACC-257
HCT-15 = system: HCT-15
NCI/ADR-RES = system: NCI/ADR-RES
NCI-H226 = system: NCI-H226
OVCAR-8 = system: OVCAR-8
SK-MEL-5 = system: SK-MEL-5
K562 = system: K562
MDA-MB-435 = system: MDA-MB-435
SF-295 = system: SF-295
M14 = system: M14
IGROV-1 = system: IGROV-1
SF-539 = system: SF-539
RPMI-8226 = system: RPMI-8226
OVCAR-5 = system: OVCAR-5
HL-60 = system: HL-60
Malme-3M = system: Malme-3M
786-0 = system: 786-0
UACC-62 = system: UACC-62
HOP-62 = system: HOP-62
CAKI-1 = system: CAKI-1
EKVX = system: EKVX
SK-MEL-2 = system: SK-MEL-2

## Cc1ccc(S(=O)(=O)NCCSCCNS(=O)(=O)c2ccc(C)cc2)cc1
HCC 2998
  GI50: > 100 µM (inactive)
CCRF-CEM
  GI50: > 100 µM (inactive)
A549
  GI50: > 100 µM (inactive)
OVCAR-3
  GI50: > 100 µM (inactive)
HT-29
  GI50: > 100 µM (inactive)
SW-620
  GI50: > 100 µM (inactive)
MOLT-4
  GI50: > 100 µM (inactive)
RXF 393
  GI50: > 100 µM (inactive)
SK-OV-3
  GI50: > 100 µM (inactive)
NCI-H23
  GI50: > 100 µM (inactive)
UO-31
  GI50: > 100 µM (inactive)
T47D
  GI50: > 100 µM (inactive)
U-251
  GI50: > 100 µM (inactive)
OVCAR-4
  GI50: > 100 µM (inactive)
Hs-578T
  GI50: > 100 µM (inactive)
MDA-N
  GI50: > 100 µM (inactive)
SF-268
  GI50: > 100 µM (inactive)
MCF7
  GI50: > 100 µM (inactive)
PC-3
  GI50: > 100 µM (inactive)
SR
  GI50: > 100 µM (inactive)
SNB-19
  GI50: > 100 µM (inactive)
HCT-116
  GI50: > 100 µM (inactive)
TK-10
  GI50: > 100 µM (inactive)
NCI-H460
  GI50: > 100 µM (inactive)
HOP-92
  GI50: > 100 µM (inactive)
A498
  GI50: > 100 µM (inactive)
NCI-H522
  GI50: > 100 µM (inactive)
ACHN
  GI50: > 100 µM (inactive)
SNB-75
  GI50: > 100 µM (inactive)
MDA-MB-231
  GI50: > 100 µM (inactive)
KM12
  GI50: > 100 µM (inactive)
SK-MEL-28
  GI50: > 100 µM (inactive)
LOX IMVI
  GI50: > 100 µM (inactive)
DU-145
  GI50: > 100 µM (inactive)
COLO 205
  GI50: > 100 µM (inactive)
SN12C
  GI50: > 100 µM (inactive)
UACC-257
  GI50: > 100 µM (inactive)
HCT-15
  GI50: > 100 µM
NCI/ADR-RES
  GI50: > 100 µM (inactive)
NCI-H226
  GI50: > 100 µM (inactive)
OVCAR-8
  GI50: > 100 µM (inactive)
SK-MEL-5
  GI50: > 100 µM (inactive)
K562
  GI50: > 100 µM (inactive)
MDA-MB-435
  GI50: > 100 µM (inactive)
SF-295
  GI50: > 100 µM (inactive)
M14
  GI50: > 100 µM (inactive)

## O=C(CC(C(=O)c1cccs1)c1cccs1)c1ccsc1 (centres undefined)
HCC 2998
  GI50: 57.4 µM (inactive)
IGROV-1
  GI50: > 100 µM (inactive)
CCRF-CEM
  GI50: 37.9 µM (inactive)
A549
  GI50: 43.3 µM (inactive)
SF-539
  GI50: 67 µM (inactive)
HT-29
  GI50: 57.9 µM (inactive)
SW-620
  GI50: 44.1 µM (inactive)
MOLT-4
  GI50: 46.2 µM (inactive)
SK-OV-3
  GI50: 50.1 µM (inactive)
RPMI-8226
  GI50: 36.1 µM (inactive)
NCI-H23
  GI50: 35.6 µM (inactive)
UO-31
  GI50: 43.5 µM (inactive)
T47D
  GI50: 39.6 µM (inactive)
OVCAR-5
  GI50: > 100 µM (inactive)
U-251
  GI50: 41.6 µM (inactive)
OVCAR-4
  GI50: 67.1 µM (inactive)
Hs-578T
  GI50: > 100 µM (inactive)
MDA-N
  GI50: 19.4 µM (inactive)
SF-268
  GI50: 56.4 µM (inactive)
MCF7
  GI50: 32.8 µM (inactive)
PC-3
  GI50: 35.8 µM (inactive)
HL-60
  GI50: 29 µM (inactive)
SR
  GI50: 37.2 µM (inactive)
SNB-19
  GI50: 75.2 µM (inactive)
HCT-116
  GI50: 36.6 µM (inactive)
TK-10
  GI50: > 100 µM (inactive)
NCI-H460
  GI50: 42.4 µM (inactive)
Malme-3M
  GI50: 40.8 µM (inactive)
786-0
  GI50: 50.5 µM (inactive)
A498
  GI50: 49.7 µM (inactive)
UACC-62
  GI50: 37.5 µM (inactive)
ACHN
  GI50: 67 µM (inactive)
SNB-75
  GI50: 40.2 µM (inactive)
MDA-MB-231
  GI50: 38 µM (inactive)
KM12
  GI50: 34 µM (inactive)
HOP-62
  GI50: 73.6 µM (inactive)
SK-MEL-28
  GI50: 47.5 µM (inactive)
LOX IMVI
  GI50: 10.2 µM (inactive)
DU-145
  GI50: > 100 µM (inactive)
CAKI-1
  GI50: > 100 µM (inactive)
COLO 205
  GI50: 45.3 µM (inactive)
SN12C
  GI50: 39.4 µM (inactive)
UACC-257
  GI50: 60 µM (inactive)
HCT-15
  GI50: 38.3 µM
EKVX
  GI50: 66.1 µM (inactive)
NCI/ADR-RES
  GI50: 32.7 µM (inactive)
NCI-H226
  GI50: > 100 µM (inactive)
SK-MEL-2
  GI50: 35.7 µM (inactive)
OVCAR-8
  GI50: 59.2 µM (inactive)
SK-MEL-5
  GI50: 39.6 µM (inactive)
K562
  GI50: 46 µM (inactive)
MDA-MB-435
  GI50: 20.2 µM (inactive)
M14
  GI50: 38.2 µM (inactive)

## CSc1nc(-c2ccccc2)nc(C(C#N)C#N)n1
HCC 2998
  GI50: > 100 µM (inactive)
IGROV-1
  GI50: > 100 µM (inactive)
CCRF-CEM
  GI50: > 100 µM (inactive)
A549
  GI50: > 100 µM (inactive)
OVCAR-3
  GI50: > 100 µM (inactive)
SF-539
  GI50: > 100 µM (inactive)
HT-29
  GI50: > 100 µM (inactive)
SW-620
  GI50: > 100 µM (inactive)
MOLT-4
  GI50: > 100 µM (inactive)
RXF 393
  GI50: > 100 µM (inactive)
SK-OV-3
  GI50: > 100 µM (inactive)
RPMI-8226
  GI50: > 100 µM (inactive)
NCI-H23
  GI50: > 100 µM (inactive)
UO-31
  GI50: 61.2 µM (inactive)
T47D
  GI50: > 100 µM (inactive)
OVCAR-5
  GI50: > 100 µM (inactive)
U-251
  GI50: > 100 µM (inactive)
OVCAR-4
  GI50: > 100 µM (inactive)
Hs-578T
  GI50: > 100 µM (inactive)
MDA-N
  GI50: > 100 µM (inactive)
SF-268
  GI50: > 100 µM (inactive)
MCF7
  GI50: > 100 µM (inactive)
PC-3
  GI50: > 100 µM (inactive)
HL-60
  GI50: > 100 µM (inactive)
SNB-19
  GI50: > 100 µM (inactive)
HCT-116
  GI50: > 100 µM (inactive)
TK-10
  GI50: > 100 µM (inactive)
Malme-3M
  GI50: > 100 µM (inactive)
HOP-92
  GI50: > 100 µM (inactive)
786-0
  GI50: > 100 µM (inactive)
A498
  GI50: > 100 µM (inactive)
NCI-H522
  GI50: > 100 µM (inactive)
UACC-62
  GI50: > 100 µM (inactive)
ACHN
  GI50: > 100 µM (inactive)
SNB-75
  GI50: > 100 µM (inactive)
MDA-MB-231
  GI50: > 100 µM (inactive)
KM12
  GI50: > 100 µM (inactive)
HOP-62
  GI50: > 100 µM (inactive)
SK-MEL-28
  GI50: > 100 µM (inactive)
LOX IMVI
  GI50: > 100 µM (inactive)
DU-145
  GI50: > 100 µM (inactive)
CAKI-1
  GI50: > 100 µM (inactive)
COLO 205
  GI50: > 100 µM (inactive)
SN12C
  GI50: > 100 µM (inactive)
UACC-257
  GI50: > 100 µM (inactive)
HCT-15
  GI50: > 100 µM
EKVX
  GI50: > 100 µM (inactive)
NCI/ADR-RES
  GI50: > 100 µM (inactive)
NCI-H226
  GI50: > 100 µM (inactive)
SK-MEL-2
  GI50: > 100 µM (inactive)
OVCAR-8
  GI50: > 100 µM (inactive)
SK-MEL-5
  GI50: > 100 µM (inactive)
MDA-MB-435
  GI50: > 100 µM (inactive)
SF-295
  GI50: > 100 µM (inactive)
M14
  GI50: > 100 µM (inactive)

— ChEMBL document CHEMBL1201862, “PubChem BioAssay data set” (2004)
